Tested on: rat liver proteome
Experiment: Liver label-free quantitative proteomics
Type: in vivo
Details: for differentially expressed liver proteins vs vehicle control: adjusted p < 0.05 and Log2 FC > 0.5 or < −0.5
Method: Liver tissue were homogenized in PreOmics iST buffer (PreOmics) using a bead ruptor. […] Peptides were purified using PreOmics iST cartridges and vacuum-centrifuged to dryness. Peptides were subsequently reconstituted in 2 vol% ACN and 0.1 vol% formic acid for single-run LC–MS analysis. Peptides were analyzed using a Thermo EASY-nLC1200 coupled online to an Exploris 480 Mass Spectrometer equipped with a Nanospray Flex Ion Source integrated with a column oven (PRSO-V1, Sonation) and a FAIMS unit. Peptides were separated using a nonlinear gradient and analyzed by acquiring spectra through Data Independent Acquisition (DIA). Data was analyzed using Spectronaut V15.7.2 (Biognosys AG) direct DIA analysis using an isoform Rat database (UniProt downloaded 22.02.2021) consisting of 9,746 protein entries utilizing the Pulsar search engine. Analysis settings were maintained to factory settings and identification was set to 1% false discovery rate (FDR) for precursor and protein level. Additional information is provided in Supplementary M&M.
Data analysis was performed using R Statistical Software (version 4.3.0). Proteomics, transcriptomics and metabolomics expression changes were visualised using heatmaps showing log2 fold change relative to control. In the heatmaps missing values were highlighted in grey.
Proteomics Analysis. Liver tissue was placed in vials containing 1.4 mm zirconia beads and taken up in 500 µL of PreOmics iST buffer (PreOmics). In a cold room set to 4 °C, tissues were homogenized utilizing a bead Ruptor 12 by shaking for 30 seconds for a total of 5 times using ‘high’ setting. Lysate was normalized using BCA assay (Thermo Fisher Scientific), and subsequently incubated at 95 °C for 10 min for reduction, and alkylation of proteins. A total of 50 μg from each sample was subjected to enzymatic cleavage for 3 h by adding equal amounts of endoproteinase Lys-C and trypsin (ThermoFisher Scientific, # A40009) in a 1:50 (wt/wt) enzyme:protein ratio. De-salting and purification were performed according to the PreOmics iST protocol on a styrene divinylbenzene reversed-phase sulfonate sorbent. Purified peptides were vacuum-centrifuged to dryness and reconstituted in double-distilled water with 2 vol% ACN and 0.1 vol% formic acid (FA) for single-run LC-MS analysis.
Peptides were loaded onto a ReproSil-Pur 120 C18AQ 1.9 µm in-house packed to a 5 µm tip 75u ID × 360u × 50 cm column using Thermo EASY-nLC 1200 coupled online to an Exploris 480 Mass Spectrometer equipped with a Nanospray Flex Ion Source integrated with a column oven (PRSO-V1, Sonation) maintained at 50 °C. Peptides were separated using a nonlinear gradient: Mobile phase A was 0.1 vol% FA and 3 vol% acetonitrile (ACN) in water, Mobile phase B was 90 vol% ACN and 0.1 vol % FA. The gradient was operated at 250 nL/min flowing 3 vol% B for 3 min, 3 to 5 vol% B over 3 min, 5 to 17 vol % B over 120 min, 17 to 24 vol % B over 26 min, 24 to 30 vol% B over 14 min, 30 to 85 vol% B over 3 min.

In the case of Cn1cc2cc(-c3cc4[nH]nc(C5CC5)c4n(-c4ccc(OC(F)F)cc4)c3=O)ccc2n1 [AZ’9567], the “differentially expressed liver proteins vs vehicle control” value (3 mg/kg BID) is reported as “around 357”, the “differentially expressed liver proteins vs vehicle control” value (highest dose (30 mg/kg BID)) is reported as 519 and the “A2m Log2FC” value (liver protein, 3mg/kg) is reported as 1.7. The “Abcb1 Log2FC” value (liver protein, 3mg/kg) was 1.4, the “Abhd1 Log2FC” value (liver protein, 3mg/kg) was -1.8 and the “Acaca Log2FC” value (liver protein, 3mg/kg) was -1. The “Acbd4 Log2FC” value (liver protein, 3mg/kg) was -0.7, the “Acly Log2FC” value (liver protein, 3mg/kg) was -1.1 and the “Acsl1 Log2FC” value (liver protein, 3mg/kg) was -0.7. The “Acsl3 Log2FC” value (liver protein, 3mg/kg) was -0.8, the “Acsm2 Log2FC” value (liver protein, 3mg/kg) was 1.4 and the “Akap5 Log2FC” value (liver protein, 3mg/kg) was -1.0. The “Aldh1a1 Log2FC” value (liver protein, 3mg/kg) was 1.7, the “Aldh1a7 Log2FC” value (liver protein, 3mg/kg) was 1.5 and the “Aldh16a1 Log2FC” value (liver protein, 3mg/kg) was -0.6. For the same compound, the “Alpl Log2FC” value (liver protein, 3mg/kg) was 1.8, the “Als2 Log2FC” value (liver protein, 3mg/kg) was -1.1 and the “Anpep Log2FC” value (liver protein, 3mg/kg) was 0.8. For the same compound, the “Aox1 Log2FC” value (liver protein, 3mg/kg) was -0.6, the “Apeh Log2FC” value (liver protein, 3mg/kg) was -0.7 and the “Apoc1 Log2FC” value (liver protein, 3mg/kg) was -1.2. The “Aqp8 Log2FC” value (liver protein, 3mg/kg) was 0.8, the “Asns Log2FC” value (liver protein, 3mg/kg) was 1.6 and the “Baat Log2FC” value (liver protein, 3mg/kg) was -0.8. The “Banf1 Log2FC” value (liver protein, 3mg/kg) was 0.8, the “Bhmt2 Log2FC” value (liver protein, 3mg/kg) was 1.2 and the “Bhmt Log2FC” value (liver protein, 3mg/kg) was 1.7. The “Brix1 Log2FC” value (liver protein, 3mg/kg) was 0.7, the “Ca5a Log2FC” value (liver protein, 3mg/kg) was 1.1 and the “Carnmt1 Log2FC” value (liver protein, 3mg/kg) was -1.4. The “Cbs Log2FC” value (liver protein, 3mg/kg) was -2.9, the “Ccnd1 Log2FC” value (liver protein, 3mg/kg) was 12.4 and the “Cdh1 Log2FC” value (liver protein, 3mg/kg) was 0.7. The “Cdo1 Log2FC” value (liver protein, 3mg/kg) was -3.9, the “Ces2c Log2FC” value (liver protein, 3mg/kg) was 1.4 and the “Cfdp1 Log2FC” value (liver protein, 3mg/kg) was 0.5. For the same compound, the “Chid1 Log2FC” value (liver protein, 3mg/kg) was 0.9, the “Comt Log2FC” value (liver protein, 3mg/kg) was -0.5 and the “Coq4 Log2FC” value (liver protein, 3mg/kg) was 1.0. For the same compound, the “Csad Log2FC” value (liver protein, 3mg/kg) was -0.7, the “Ctbs Log2FC” value (liver protein, 3mg/kg) was -0.6 and the “Cyp2c23 Log2FC” value (liver protein, 3mg/kg) was -0.6. The “Cyp4a2 Log2FC” value (liver protein, 3mg/kg) was 1.4, the “Cyp4a10 Log2FC” value (liver protein, 3mg/kg) was 1.7 and the “Dbnl Log2FC” value (liver protein, 3mg/kg) was 0.6. The “Dcakd Log2FC” value (liver protein, 3mg/kg) was 1.0, the “Dkc1 Log2FC” value (liver protein, 3mg/kg) was 0.6 and the “Dmgdh Log2FC” value (liver protein, 3mg/kg) was 1. The “Dohh Log2FC” value (liver protein, 3mg/kg) was 0.8, the “Eif4ebp1 Log2FC” value (liver protein, 3mg/kg) was 1.1 and the “Enpep Log2FC” value (liver protein, 3mg/kg) was -0.8. The “Fabp5 Log2FC” value (liver protein, 3mg/kg) was -0.7, the “Fads1 Log2FC” value (liver protein, 3mg/kg) was -1.3 and the “Fasn Log2FC” value (liver protein, 3mg/kg) was -0.7. For the same compound, the “Fdft1 Log2FC” value (liver protein, 3mg/kg) was 0.9, the “Fdps Log2FC” value (liver protein, 3mg/kg) was 0.5 and the “Fgr Log2FC” value (liver protein, 3mg/kg) was 1.5. For the same compound, the “Gimd1 Log2FC” value (liver protein, 3mg/kg) was -0.7, the “Gmpr Log2FC” value (liver protein, 3mg/kg) was 0.8 and the “Gnl3 Log2FC” value (liver protein, 3mg/kg) was 1.0. The “Gnmt Log2FC” value (liver protein, 3mg/kg) was 1.6, the “Gpcpd1 Log2FC” value (liver protein, 3mg/kg) was 1.2 and the “Gstm1 Log2FC” value (liver protein, 3mg/kg) was -0.8. The “Gstm2 Log2FC” value (liver protein, 3mg/kg) was -0.8, the “Gtpbp4 Log2FC” value (liver protein, 3mg/kg) was 0.7 and the “Hexa Log2FC” value (liver protein, 3mg/kg) was -0.6. The “Hfe Log2FC” value (liver protein, 3mg/kg) was 1.1, the “Hmgcs1 Log2FC” value (liver protein, 3mg/kg) was 1.3 and the “Hmgn2 Log2FC” value (liver protein, 3mg/kg) was 1.0. For the same compound, the “Hnrnpa1 Log2FC” value (liver protein, 3mg/kg) was 1.1, the “Hsd17b7 Log2FC” value (liver protein, 3mg/kg) was 0.6 and the “Idi1 Log2FC” value (liver protein, 3mg/kg) was 0.9. For the same compound, the “Igf1 Log2FC” value (liver protein, 3mg/kg) was -1.4, the “Kalrn Log2FC” value (liver protein, 3mg/kg) was 0.7 and the “Lipa Log2FC” value (liver protein, 3mg/kg) was -0.8. For the same compound, the “Lrrc8d Log2FC” value (liver protein, 3mg/kg) was 0.9, the “Lyrm2 Log2FC” value (liver protein, 3mg/kg) was 0.8 and the “Mat1a Log2FC” value (liver protein, 3mg/kg) was 0.9. For the same compound, the “Mat2a Log2FC” value (liver protein, 3mg/kg) was 0.8, the “Mat2b Log2FC” value (liver protein, 3mg/kg) was -1.9 and the “Me1 Log2FC” value (liver protein, 3mg/kg) was -1. For the same compound, the “Mettl7b Log2FC” value (liver protein, 3mg/kg) was -0.6, the “Mettl26 Log2FC” value (liver protein, 3mg/kg) was -1.8 and the “Minpp1 Log2FC” value (liver protein, 3mg/kg) was 0.6. For the same compound, the “Mospd1 Log2FC” value (liver protein, 3mg/kg) was -0.5, the “Mt1 Log2FC” value (liver protein, 3mg/kg) was 6.2 and the “Mtr Log2FC” value (liver protein, 3mg/kg) was 1.1. For the same compound, the “Mybbp1a Log2FC” value (liver protein, 3mg/kg) was 0.7.
